# In publication PMC3700073, “Synthesis and Biological Activity of New Thiopyrano[2,3-d]thiazoles Containing a Naphthoquinone Moiety” (Scientia Pharmaceutica, 2013):
# Like-named read-outs stand apart in the source and are kept apart here.
# Columns and labels:
# CCRF-CEM (leukemia) = assay: NCI five-dose assay; type: cell-based; details: Homo sapiens
# K-562 (leukemia) = assay: NCI five-dose assay; type: cell-based; details: Homo sapiens, K562, K-562, leukemia
# MOLT-4 (leukemia) = assay: NCI five-dose assay; type: cell-based; details: Homo sapiens, MOLT-4, MOLT-4, leukemia
# RPMI-8226 (leukemia) = assay: NCI five-dose assay; type: cell-based; details: Homo sapiens, RPMI-8226, RPMI-8226, leukemia
# A549/ATCC (NSCL cancer) = assay: NCI five-dose assay; type: cell-based; details: Homo sapiens
# EKVX (NSCL cancer) = assay: NCI five-dose assay; type: cell-based; details: Homo sapiens
# HOP-92 (NSCL cancer) = assay: NCI five-dose assay; type: cell-based; details: Homo sapiens, HOP-92, HOP-92, NSCL cancer
# NCI-H226 (NSCL cancer) = assay: NCI five-dose assay; type: cell-based; details: Homo sapiens
# NCI-H23 (NSCL cancer) = assay: NCI five-dose assay; type: cell-based; details: Homo sapiens
# NCI-H322M (NSCL cancer) = assay: NCI five-dose assay; type: cell-based; details: Homo sapiens
# LOX IMVI (melanoma) = assay: NCI five-dose assay; type: cell-based; details: Homo sapiens
# MALME-3M (melanoma) = assay: NCI five-dose assay; type: cell-based; details: Homo sapiens
# SK-MEL-2 (melanoma) = assay: NCI five-dose assay; type: cell-based; details: Homo sapiens, SK-MEL-2, SK-MEL-2, melanoma
# SK-MEL-28 (melanoma) = assay: NCI five-dose assay; type: cell-based; details: Homo sapiens, SK-MEL-28, SK-MEL-28, melanoma
# MCF-7 (breast cancer) = assay: NCI five-dose assay; type: cell-based; details: Homo sapiens, MCF7, MCF-7, breast cancer
# [1] = test system: NCI/ADR-RES (breast cancer); assay: NCI five-dose assay; type: cell-based; details: Homo sapiens
# HS 578T (breast cancer) = assay: NCI five-dose assay; type: cell-based, human; details: for GI50: Homo sapiens, Hs-578T, HS 578T, breast cancer
# SF-268 (CNS cancer) = assay: NCI five-dose assay; type: cell-based; details: Homo sapiens, SF-268, SF-268, CNS cancer
# SF-295 (CNS cancer) = assay: NCI five-dose assay; type: cell-based; details: Homo sapiens, SF-295, SF-295, CNS cancer
# SF-539 (CNS cancer) = assay: NCI five-dose assay; type: cell-based; details: Homo sapiens, SF-539, SF-539, CNS cancer
# SNB-19 (CNS cancer) = assay: NCI five-dose assay; type: cell-based; details: Homo sapiens, SNB-19, SNB-19, CNS cancer
# SNB-75 (CNS cancer) = assay: NCI five-dose assay; type: cell-based; details: Homo sapiens, SNB-75, SNB-75, CNS cancer
# U251 (CNS cancer) = assay: NCI five-dose assay; type: cell-based; details: Homo sapiens, U-251, U251, CNS cancer
# OVCAR-5 (ovarian cancer) = assay: NCI five-dose assay; type: cell-based; details: Homo sapiens, OVCAR-5, OVCAR-5, ovarian cancer
# OVCAR-8 (ovarian cancer) = assay: NCI five-dose assay; type: cell-based; details: Homo sapiens, OVCAR-8, OVCAR-8, ovarian cancer
# SK-OV-3 (ovarian cancer) = assay: NCI five-dose assay; type: cell-based; details: Homo sapiens, SK-OV-3, SK-OV-3, ovarian cancer
# ACHN (renal cancer) = assay: NCI five-dose assay; type: cell-based; details: Homo sapiens
# RXF-393 (renal cancer) = assay: NCI five-dose assay; type: cell-based; details: Homo sapiens
# HCT-116 (colon cancer) = assay: NCI five-dose assay; type: cell-based; details: Homo sapiens, HCT-116, HCT-116, colon cancer
# HCT-15 (colon cancer) = assay: NCI five-dose assay; type: cell-based; details: Homo sapiens, HCT-15, HCT-15, colon cancer
# HT29 (colon cancer) = assay: NCI five-dose assay; type: cell-based; details: Homo sapiens, HT-29, HT29, colon cancer
# KM12 (colon cancer) = assay: NCI five-dose assay; type: cell-based; details: Homo sapiens
# SW-620 (colon cancer) = assay: NCI five-dose assay; type: cell-based; details: Homo sapiens, SW-620, SW-620, colon cancer
# male mice = assay: Acute toxicity in vivo, median lethal dose; details: intraperitoneal, approximate LD50 (Litchfield and Wilcoxon)
# Procedure: The synthesized compounds were evaluated for their approximate LD50 in male mice. The mice were kept under a constant temperature and humidity in sterile cages with water and food. The stock solutions of the compounds used in this study were prepared immediately before usage and injected intraperitoneally (ip). The LD50 values (Tab. 3) were calculated using the method described by Litchfield and Wilcoxon.
# The median lethal dose (LD50), the dose of the selected compounds that causes 50% mortality in mice, was determined from dose–response curves with at least four doses by the method of Litchfield and Wilcoxon.
# 60 cancer cell lines [2] = details: over the cell line panel
# 60 cancer cell lines [3] = assay: cells; details: Homo sapiens
# [4] = read-out: GI50 MG_MID, over the cell line panel
# [5] = read-out: GI50 Range (min – max), over the cell line panel
# [6] = read-out: LC50 MG_MID, over the cell line panel
# [7] = read-out: LC50 Range (min – max), over the cell line panel
compound,measurement,setting,value
"COc1ccc(C2C3=C(Sc4[nH]c(=O)sc42)C(=O)c2ccccc2C3=O)cc1OC (centres unmarked) [Compound 4f, 11-(3,4-Dimethoxyphenyl)-3,11-dihydro-2H-benzo[6,7]thiochromeno[2,3-d][1,3]thiazole-2,5,10-trione]",GI50,CCRF-CEM (leukemia),4.38 µM
same,GI50,K-562 (leukemia),4.97 µM
same,GI50,MOLT-4 (leukemia),3.88 µM
same,GI50,RPMI-8226 (leukemia),4.64 µM
same,GI50,A549/ATCC (NSCL cancer),2.35 µM
same,GI50,EKVX (NSCL cancer),4.97 µM
same,GI50,HOP-92 (NSCL cancer),5.26 µM
same,GI50,NCI-H226 (NSCL cancer),5.43 µM
same,GI50,NCI-H23 (NSCL cancer),1.68 µM
same,GI50,NCI-H322M (NSCL cancer),3.78 µM
same,GI50,LOX IMVI (melanoma),1.26 µM
same,GI50,MALME-3M (melanoma),2.12 µM
same,GI50,SK-MEL-2 (melanoma),4.19 µM
same,GI50,SK-MEL-28 (melanoma),6.22 µM
same,GI50,MCF-7 (breast cancer),2.25 µM
same,GI50,[1],7.07 µM
same,GI50,HS 578T (breast cancer),3.71 µM
same,GI50,SF-268 (CNS cancer),4.89 µM
same,GI50,SF-295 (CNS cancer),3.77 µM
same,GI50,SF-539 (CNS cancer),3.17 µM
same,GI50,SNB-19 (CNS cancer),4.49 µM
same,GI50,SNB-75 (CNS cancer),6.64 µM
same,GI50,U251 (CNS cancer),4.27 µM
same,GI50,OVCAR-5 (ovarian cancer),17.7 µM
same,GI50,OVCAR-8 (ovarian cancer),4.02 µM
same,GI50,SK-OV-3 (ovarian cancer),13.6 µM
same,GI50,ACHN (renal cancer),9.24 µM
same,GI50,RXF-393 (renal cancer),2.27 µM
same,GI50,HCT-116 (colon cancer),3.47 µM
same,GI50,HCT-15 (colon cancer),3.51 µM
same,GI50,HT29 (colon cancer),3.15 µM
same,GI50,KM12 (colon cancer),5.99 µM
same,GI50,SW-620 (colon cancer),3.96 µM
same,LD50ip,male mice,410 mg/kg
same,TGI MG_MID,60 cancer cell lines [2],14.79 µM
same,GI50,60 cancer cell lines [3]; [4],4.19 µM
same,GI50,60 cancer cell lines [3]; [5],1.26 to 17.7 µM
same,CC50,60 cancer cell lines [3]; [6],47.9 µM
same,CC50,60 cancer cell lines [3]; [7],5.34 to 93 µM
"COc1cc(C2C3=C(Sc4[nH]c(=O)sc42)C(=O)c2ccccc2C3=O)ccc1O (centres unmarked) [Compound 4i, 11-(4-Hydroxy-3-methoxyphenyl)-3,11-dihydro-2H-benzo[6,7]thiochromeno[2,3-d]-[1,3]thiazole-2,5,10-trione]",GI50,CCRF-CEM (leukemia),3.19 µM
same,GI50,CCRF-CEM (leukemia); repeated testing,1.84 µM
same,GI50,K-562 (leukemia); repeated testing,1.98 µM
same,GI50,K-562 (leukemia); result printed as symbol,> 100 µM
same,GI50,MOLT-4 (leukemia),2.77 µM
same,GI50,MOLT-4 (leukemia); repeated testing,3.67 µM
same,GI50,RPMI-8226 (leukemia),1.93 µM
same,GI50,RPMI-8226 (leukemia); repeated testing,1.33 µM
same,GI50,A549/ATCC (NSCL cancer),1.34 µM
same,GI50,A549/ATCC (NSCL cancer); repeated testing,0.65 µM
same,GI50,EKVX (NSCL cancer),3.24 µM
same,GI50,EKVX (NSCL cancer); repeated testing,4.03 µM
same,GI50,HOP-92 (NSCL cancer),1.44 µM
same,GI50,HOP-92 (NSCL cancer); repeated testing,2.15 µM
same,GI50,NCI-H226 (NSCL cancer),1.74 µM
same,GI50,NCI-H226 (NSCL cancer); repeated testing,2.85 µM
same,GI50,NCI-H23 (NSCL cancer),0.95 µM
same,GI50,NCI-H23 (NSCL cancer); repeated testing,0.41 µM
same,GI50,NCI-H322M (NSCL cancer),2.05 µM
same,GI50,NCI-H322M (NSCL cancer); repeated testing,1.86 µM
same,GI50,LOX IMVI (melanoma),0.16 µM
same,GI50,LOX IMVI (melanoma); repeated testing,0.25 µM
same,GI50,MALME-3M (melanoma),0.72 µM
same,GI50,MALME-3M (melanoma); repeated testing,1.05 µM
same,GI50,SK-MEL-2 (melanoma),2.21 µM
same,GI50,SK-MEL-2 (melanoma); repeated testing,0.98 µM
same,GI50,SK-MEL-28 (melanoma),1.79 µM
same,GI50,SK-MEL-28 (melanoma); repeated testing,1.41 µM
same,GI50,MCF-7 (breast cancer),1.07 µM
same,GI50,MCF-7 (breast cancer); repeated testing,2.26 µM
same,GI50,[1],8.39 µM
same,GI50,[1]; repeated testing,4.5 µM
same,TGI of the most sensitive cell line,HS 578T (breast cancer); HS 578T /breast cancer/,0.27 / 1.09 μM
same,GI50,HS 578T (breast cancer),0.27 µM
same,GI50,HS 578T (breast cancer); repeated testing,0.65 µM
same,GI50,SF-268 (CNS cancer),2.53 µM
same,GI50,SF-268 (CNS cancer); repeated testing,3.3 µM
same,GI50,SF-295 (CNS cancer),1.71 µM
same,GI50,SF-295 (CNS cancer); repeated testing,1.14 µM
same,GI50,SF-539 (CNS cancer),3.26 µM
same,GI50,SF-539 (CNS cancer); repeated testing,3.46 µM
same,GI50,SNB-19 (CNS cancer),2.41 µM
same,GI50,SNB-19 (CNS cancer); repeated testing,2.85 µM
same,GI50,SNB-75 (CNS cancer),1.26 µM
same,GI50,SNB-75 (CNS cancer); repeated testing,0.67 µM
same,GI50,U251 (CNS cancer),1.63 µM
same,GI50,U251 (CNS cancer); repeated testing,2.21 µM
same,GI50,OVCAR-5 (ovarian cancer),10.4 µM
same,GI50,OVCAR-5 (ovarian cancer); repeated testing,4.49 µM
same,GI50,OVCAR-8 (ovarian cancer),2.85 µM
same,GI50,OVCAR-8 (ovarian cancer); repeated testing,2.05 µM
same,GI50,SK-OV-3 (ovarian cancer),8.28 µM
same,GI50,SK-OV-3 (ovarian cancer); repeated testing,5.72 µM
same,GI50,ACHN (renal cancer),2.95 µM
same,GI50,ACHN (renal cancer); repeated testing,1.66 µM
same,GI50,RXF-393 (renal cancer),2.52 µM
same,GI50,HCT-116 (colon cancer),3.36 µM
same,GI50,HCT-116 (colon cancer); repeated testing,2.46 µM
same,GI50,HCT-15 (colon cancer),2.07 µM
same,GI50,HCT-15 (colon cancer); repeated testing,1.74 µM
same,GI50,HT29 (colon cancer),2.35 µM
same,GI50,HT29 (colon cancer); repeated testing,2.02 µM
same,GI50,KM12 (colon cancer),2.25 µM
same,GI50,KM12 (colon cancer); repeated testing,2.51 µM
same,GI50,SW-620 (colon cancer),2.82 µM
same,GI50,SW-620 (colon cancer); repeated testing,3.23 µM
same,LD50ip,male mice,280 mg/kg
same,TGI MG_MID,60 cancer cell lines [2],10.96 µM
same,TGI MG_MID,60 cancer cell lines [2]; repeated testing,(8.51) μM
same,GI50,60 cancer cell lines [3]; [4],1.95 µM
same,GI50,"60 cancer cell lines [3]; read-out: GI50 MG_MID, over the cell line panel, repeated testing",1.7 µM
same,GI50,60 cancer cell lines [3]; [5],0.16 to 41.4 µM
same,GI50,"60 cancer cell lines [3]; read-out: GI50 Range (min – max), over the cell line panel, repeated testing",0.22 to 5.72 µM
same,CC50,60 cancer cell lines [3]; [6],42.7 µM
same,CC50,"60 cancer cell lines [3]; read-out: LC50 MG_MID, over the cell line panel, repeated testing",38 µM
same,CC50,60 cancer cell lines [3]; [7],4.14 to 92.4 µM
same,CC50,"60 cancer cell lines [3]; read-out: LC50 Range (min – max), over the cell line panel, repeated testing",4.93 to 86.6 µM
